Results published in ChEMBL document CHEMBL4483862, “Open-source discovery of chemical leads for next-generation chemoprotective antimalarials” (2018).

System: Plasmodium berghei
Test: Luciferase/luciferin-expressing antifolate-resistant parasites were used to infect a culture of HepG2 cells that were pre-incubated with compounds. Infected hepatocytes emit light due to the luciferase reaction. Assay results are presented as the percent inhibition of light emission compared to control. […]
Format: functional
Conditions: sporozoite; for IC90: read-out: LUCIFERASE INFECTION ASSAY - IC90

Structure (SMILES): CCCNC(=O)c1nnsc1S(=O)(=O)c1ccc(Cl)cc1
- IC50 (HEPG2TOX_HILL_SLOPE 12.7, HEPG2TOX_R_SQUARED 0.778, PBLUC_HILL_SLOPE 22.3, PBLUC_R_SQUARED 0.0764, read-out: LUCIFERASE INFECTION ASSAY - IC50): 9.02 µM
- IC90: > 9.54 µM

Structure (SMILES): O=C(Nc1ccc(OC(F)(F)F)cc1)c1ccc2c(c1)no[n+]2[O-]
- IC50 (HEPG2TOX_HILL_SLOPE 13, HEPG2TOX_R_SQUARED 0.448, PBLUC_HILL_SLOPE 2.82, PBLUC_R_SQUARED 0.324, read-out: LUCIFERASE INFECTION ASSAY - IC50): 3.62 µM
- IC90: 7.89 µM

Structure (SMILES): Oc1c(C(c2ccccc2Cl)N2CCCC2)ccc2cccnc12 (configuration not stated)
- IC50 (HEPG2TOX_HILL_SLOPE 12.7, HEPG2TOX_R_SQUARED 0.0314, PBLUC_HILL_SLOPE 8.39, PBLUC_R_SQUARED 0.486, read-out: LUCIFERASE INFECTION ASSAY - IC50): 3.83 µM
- IC90: 4.97 µM

Structure (SMILES): CC(C)c1c(C(=O)NNC(=O)c2ccc3ccccc3n2)cnn1-c1ccccc1
- IC50 (HEPG2TOX_HILL_SLOPE 12.8, HEPG2TOX_R_SQUARED 0.528, PBLUC_HILL_SLOPE 15.6, PBLUC_R_SQUARED 0.425, read-out: LUCIFERASE INFECTION ASSAY - IC50): 3.28 µM
- IC90: 3.77 µM

Structure (SMILES): CCOc1c(Br)cc(/C=C2/C(=O)N(C)c3ccccc32)cc1OC
- IC50 (HEPG2TOX_HILL_SLOPE 13, HEPG2TOX_R_SQUARED 0.388, read-out: LUCIFERASE INFECTION ASSAY - IC50): > 10 µM
- IC90: > 10 µM

Structure (SMILES): O=C(NCc1ccco1)C1Cc2c(-c3ccccc3)ccnc2O1 (configuration not stated)
- IC50 (HEPG2TOX_HILL_SLOPE 12.7, HEPG2TOX_R_SQUARED 0.925, PBLUC_HILL_SLOPE 2.58, PBLUC_R_SQUARED 0.503, read-out: LUCIFERASE INFECTION ASSAY - IC50): 1.59 µM
- IC90: 3.73 µM

Structure (SMILES): CN(C)c1ccc(CNCCC(c2ccc(F)cc2)c2ccco2)cc1 (configuration not stated)
- IC50 (HEPG2TOX_HILL_SLOPE 13.3, HEPG2TOX_R_SQUARED 0.508, PBLUC_HILL_SLOPE 4.7, PBLUC_R_SQUARED 0.649, read-out: LUCIFERASE INFECTION ASSAY - IC50): 1.15 µM
- IC90: 1.83 µM

Structure (SMILES): COc1ccc(-c2cc3[nH]c(NCc4ccccc4)nc3cn2)cc1OC
- IC50 (HEPG2TOX_HILL_SLOPE 12.7, HEPG2TOX_R_SQUARED 0.819, PBLUC_HILL_SLOPE 80.4, PBLUC_R_SQUARED 0.69, read-out: LUCIFERASE INFECTION ASSAY - IC50): 5.2 µM
- IC90: 5.34 µM

Structure (SMILES): CS(=O)(=O)c1ccc(C(=O)OC(C(=O)c2c[nH]c3ccccc23)c2ccccc2)cc1[N+](=O)[O-] (configuration not stated)
- IC50 (HEPG2TOX_HILL_SLOPE 12.6, HEPG2TOX_R_SQUARED 0.833, PBLUC_HILL_SLOPE 19.7, 53.6, PBLUC_R_SQUARED 0.857, 0.714, read-out: LUCIFERASE INFECTION ASSAY - IC50): 7.02 µM
- IC90: 7.61 µM

Structure (SMILES): O=C(Nc1ccc2c(c1)OC1(CCCC1)O2)N1CCN(c2ccc(O)cc2)CC1
- IC50 (HEPG2TOX_HILL_SLOPE 12.8, HEPG2TOX_R_SQUARED 0.476, PBLUC_HILL_SLOPE 2.26, PBLUC_R_SQUARED 0.894, read-out: LUCIFERASE INFECTION ASSAY - IC50): 1.6 µM
- IC90: 4.23 µM

Structure (SMILES): CS(=O)(=O)c1ncc(Cl)c(C(=O)Nc2nc(-c3cc(F)ccc3F)cs2)n1
- IC50 (HEPG2TOX_HILL_SLOPE 13.3, HEPG2TOX_R_SQUARED 0.702, PBLUC_HILL_SLOPE 67.7, PBLUC_R_SQUARED 0.588, read-out: LUCIFERASE INFECTION ASSAY - IC50): 5.95 µM
- IC90: 6.15 µM

Structure (SMILES): Cc1c(C)n(-c2nc3ccccc3s2)c2ncnc(NCCCN(C)C)c12
- IC50 (HEPG2TOX_HILL_SLOPE 12.8, HEPG2TOX_R_SQUARED 0.501, PBLUC_HILL_SLOPE 2.59, PBLUC_R_SQUARED 0.498, read-out: LUCIFERASE INFECTION ASSAY - IC50): 7.19 µM
- IC90: > 8.67 µM

Structure (SMILES): CNC(=O)c1cccc(-c2ccc3ncc(-c4ccc(CO)cc4)n3n2)c1
- IC50 (HEPG2TOX_HILL_SLOPE 13.1, HEPG2TOX_R_SQUARED 0.574, PBLUC_HILL_SLOPE 1.06, PBLUC_R_SQUARED 0.813, read-out: LUCIFERASE INFECTION ASSAY - IC50): 1.39 µM
- IC90: > 10 µM

Structure (SMILES): COc1ccc(-c2nn(-c3ccccc3)cc2/C=N/Nc2ncc(C(F)(F)F)cc2Cl)cc1OC
- IC50 (HEPG2TOX_HILL_SLOPE 13.4, HEPG2TOX_R_SQUARED 0.529, PBLUC_HILL_SLOPE 3.64, PBLUC_R_SQUARED 0.734, read-out: LUCIFERASE INFECTION ASSAY - IC50): 1.27 µM
- IC90: 2.33 µM

Structure (SMILES): CC(=O)OC1CCC2(C)C(CCC3C4CCC(C(C)C(=O)OCC(=O)c5ccccc5)C4(C)CC(=O)C32)C1 (configuration not stated)
- IC50 (HEPG2TOX_HILL_SLOPE 12.9, HEPG2TOX_R_SQUARED 0.919, PBLUC_HILL_SLOPE 10.6, PBLUC_R_SQUARED 0.537, read-out: LUCIFERASE INFECTION ASSAY - IC50): 0.22 µM
- IC90: 0.271 µM

Structure (SMILES): CC(=O)Nc1cccc(-c2ccc3c(-c4ccccc4Oc4ccccc4)[nH]nc3n2)c1
- IC50 (HEPG2TOX_HILL_SLOPE 12.7, HEPG2TOX_R_SQUARED 0.516, PBLUC_HILL_SLOPE 10.9, PBLUC_R_SQUARED 0.441, read-out: LUCIFERASE INFECTION ASSAY - IC50): 6.81 µM
- IC90: > 7.85 µM

Structure (SMILES): CC(=O)c1cccc(NC(=O)Nc2ccc3nc(Cc4ccccc4)nn3c2)c1
- IC50 (HEPG2TOX_HILL_SLOPE 12.7, HEPG2TOX_R_SQUARED 0.848, PBLUC_HILL_SLOPE 19.5, PBLUC_R_SQUARED 0.366, read-out: LUCIFERASE INFECTION ASSAY - IC50): 3.69 µM
- IC90: 4.13 µM

Structure (SMILES): Cc1cc(C(=O)C(C)OC(=O)CCn2cnc3c(cnn3C)c2=O)c(C)n1-c1ccc(Cl)cc1 (configuration not stated)
- IC50 (HEPG2TOX_HILL_SLOPE 12.8, HEPG2TOX_R_SQUARED 0.861, read-out: LUCIFERASE INFECTION ASSAY - IC50): > 10 µM
- IC90: > 10 µM

Structure (SMILES): CC1CCc2[nH]c3ccc(C(=O)NCc4ccccc4CN(C)C)cc3c2C1 (configuration not stated)
- IC50 (HEPG2TOX_HILL_SLOPE 12.7, HEPG2TOX_R_SQUARED 0.279, PBLUC_HILL_SLOPE 14.5, PBLUC_R_SQUARED 0.467, read-out: LUCIFERASE INFECTION ASSAY - IC50): 9.09 µM
- IC90: > 10 µM

Structure (SMILES): CCCCCCCCCCCCCCCCCC1=[N+](c2ccccc2)C(Nc2ccccc2)CN1c1ccccc1 (configuration not stated)
- IC50 (HEPG2TOX_HILL_SLOPE 13, HEPG2TOX_R_SQUARED 0.218, read-out: LUCIFERASE INFECTION ASSAY - IC50): > 5.61 µM
- IC90: > 5.61 µM

Structure (SMILES): CN1CCN(c2ccc(NC(=O)c3cc4c(s3)-c3ccccc3CC4)cn2)CC1
- IC50 (HEPG2TOX_HILL_SLOPE 13, HEPG2TOX_R_SQUARED 0.777, PBLUC_HILL_SLOPE 77.5, 23.4, PBLUC_R_SQUARED 0.0252, 0.733, read-out: LUCIFERASE INFECTION ASSAY - IC50): 7.13 µM
- IC90: 7.61 µM

Structure (SMILES): COc1ccc(NS(=O)(=O)c2cc(NCc3ccccc3C)cc(C(=O)NCCN(C)C)c2)cc1
- IC50 (HEPG2TOX_HILL_SLOPE 13.2, HEPG2TOX_R_SQUARED 0.729, PBLUC_HILL_SLOPE 3.39, PBLUC_R_SQUARED 0.479, read-out: LUCIFERASE INFECTION ASSAY - IC50): 4.55 µM
- IC90: > 6.64 µM

Structure (SMILES): CCN(CC(=O)Nc1ccccc1C(F)(F)F)CC(=O)N1CCc2ccccc21
- IC50 (HEPG2TOX_HILL_SLOPE 12.9, HEPG2TOX_R_SQUARED 0.752, PBLUC_HILL_SLOPE 284, PBLUC_R_SQUARED 0.135, read-out: LUCIFERASE INFECTION ASSAY - IC50): 7.36 µM
- IC90: 7.42 µM

Structure (SMILES): O=C1C(=O)N(Cc2cccc(Cl)c2)c2c1cccc2C(F)(F)F
- IC50 (HEPG2TOX_HILL_SLOPE 13.2, HEPG2TOX_R_SQUARED 0.969, PBLUC_HILL_SLOPE 2.5, PBLUC_R_SQUARED 0.616, read-out: LUCIFERASE INFECTION ASSAY - IC50): 2.53 µM
- IC90: 6.09 µM

Structure (SMILES): CC(Sc1nc2ccccc2c(=O)n1-c1ccccc1F)c1nnc(-c2cccs2)o1 (configuration not stated)
- IC50 (HEPG2TOX_HILL_SLOPE 12.8, HEPG2TOX_R_SQUARED 0.22, PBLUC_HILL_SLOPE 16.4, PBLUC_R_SQUARED 0.485, read-out: LUCIFERASE INFECTION ASSAY - IC50): 8.88 µM
- IC90: > 10 µM

Structure (SMILES): CC(C)Oc1ccc(S(=O)(=O)N2CCOCC2)cc1NC(=O)c1cc(-c2ccccc2)n[nH]1
- IC50 (HEPG2TOX_HILL_SLOPE 13.1, HEPG2TOX_R_SQUARED 0.378, PBLUC_HILL_SLOPE 12.6, PBLUC_R_SQUARED 0.276, read-out: LUCIFERASE INFECTION ASSAY - IC50): 3.73 µM
- IC90: 4.44 µM

Structure (SMILES): COc1ccc(CN2C(=O)c3ccccc3C(C=NNc3nc(=O)cc(C)[nH]3)C2=O)cc1 (configuration not stated)
- IC50 (HEPG2TOX_HILL_SLOPE 12.8, HEPG2TOX_R_SQUARED 0.611, PBLUC_HILL_SLOPE 3.06, PBLUC_R_SQUARED 0.688, read-out: LUCIFERASE INFECTION ASSAY - IC50): 1.85 µM
- IC90: 3.8 µM

Structure (SMILES): CC(C)c1ccc(NC(=O)Nc2ccc3nc(-c4ccccn4)nn3c2)cc1
- IC50 (HEPG2TOX_HILL_SLOPE 13, HEPG2TOX_R_SQUARED 0.696, PBLUC_HILL_SLOPE 14.3, PBLUC_R_SQUARED 0.36, read-out: LUCIFERASE INFECTION ASSAY - IC50): 3.6 µM
- IC90: 4.2 µM

Structure (SMILES): CCCN1C/C(=C/c2csnn2)C(=O)/C(=C/c2csnn2)C1
- IC50 (HEPG2TOX_HILL_SLOPE 13.3, HEPG2TOX_R_SQUARED 0.713, read-out: LUCIFERASE INFECTION ASSAY - IC50): > 10 µM
- IC90: > 10 µM

Structure (SMILES): CN(C)c1ccc(-c2cc3c(cn2)nc(NCc2ccccc2F)n3C)cc1
- IC50 (HEPG2TOX_HILL_SLOPE 12.8, HEPG2TOX_R_SQUARED 0.633, PBLUC_HILL_SLOPE 3.52, PBLUC_R_SQUARED 0.567, read-out: LUCIFERASE INFECTION ASSAY - IC50): 5.77 µM
- IC90: > 10 µM

Structure (SMILES): CCc1nc(CN2CC=C(c3c[nH]c4ccccc34)CC2)cs1
- IC50 (HEPG2TOX_HILL_SLOPE 12.8, HEPG2TOX_R_SQUARED 0.446, PBLUC_HILL_SLOPE 9.90, 7.64, PBLUC_R_SQUARED 0.0237, 0.266, read-out: LUCIFERASE INFECTION ASSAY - IC50): 5.75 µM
- IC90: 7.32 µM
